The source of these data is PMC7076710, “Synthesis, Identification, and Structure–Activity Relationship Analysis of GATA4 and NKX2-5 Protein–Protein Interaction Modulators” (Journal of Medicinal Chemistry, 2019).

The target of the assay is T1, GATA4–NKX2-5 transcriptional synergy (Mus musculus, UniProt P42582+Q08369).
T1 construct: expressed in transfected cells; host or cells: COS-1
The assay can be described thus: GATA4–NKX2-5 transcriptional synergy luciferase reporter assay (3xNKE reporter, COS-1 cells). Type of assay: cell-based. (In general: In a reporter assay the amount or activity of a reporter protein is the signal.)

Setting [1] is: 3 µM compound, GATA4–NKX2-5 transcriptional synergy reporter, COS-1 cells.
The mark [2] stands for this setting: 10 µM compound, GATA4–NKX2-5 transcriptional synergy reporter, COS-1 cells.
[3] abbreviates: COS-1, compound at 3 µM, luciferase reporter activity, % of control.
[4] abbreviates: COS-1, compound at 10 µM, luciferase reporter activity, % of control.
Where [5] appears, read: COS-1, compound 3 µM, luciferase reporter activity, spread in separate STDEV column.
The mark [6] stands for this setting: COS-1, compound 10 µM, luciferase reporter activity, spread in separate STDEV column.
The mark [7] stands for this setting: COS-1, compound 3 µM, luciferase reporter activity relative to control.
Where [8] appears, read: COS-1, compound 10 µM, luciferase reporter activity relative to control.
Where [9] appears, read: COS-1, 3 µM, luciferase reporter activity, % of control.

T1 sequence (Q08369 whole entry): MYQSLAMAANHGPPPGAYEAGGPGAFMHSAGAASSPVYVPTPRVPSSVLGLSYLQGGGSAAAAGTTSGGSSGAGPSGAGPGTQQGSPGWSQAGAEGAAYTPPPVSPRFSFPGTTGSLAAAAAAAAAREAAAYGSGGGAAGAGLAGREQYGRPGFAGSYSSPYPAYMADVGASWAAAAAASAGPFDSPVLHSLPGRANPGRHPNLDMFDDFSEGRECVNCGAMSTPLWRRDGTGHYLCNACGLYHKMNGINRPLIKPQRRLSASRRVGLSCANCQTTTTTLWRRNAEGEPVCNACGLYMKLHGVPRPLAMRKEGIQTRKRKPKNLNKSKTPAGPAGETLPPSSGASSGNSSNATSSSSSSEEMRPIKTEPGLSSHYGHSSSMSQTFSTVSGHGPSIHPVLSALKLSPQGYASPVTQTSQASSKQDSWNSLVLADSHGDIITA
T1 sequence (P42582 whole entry): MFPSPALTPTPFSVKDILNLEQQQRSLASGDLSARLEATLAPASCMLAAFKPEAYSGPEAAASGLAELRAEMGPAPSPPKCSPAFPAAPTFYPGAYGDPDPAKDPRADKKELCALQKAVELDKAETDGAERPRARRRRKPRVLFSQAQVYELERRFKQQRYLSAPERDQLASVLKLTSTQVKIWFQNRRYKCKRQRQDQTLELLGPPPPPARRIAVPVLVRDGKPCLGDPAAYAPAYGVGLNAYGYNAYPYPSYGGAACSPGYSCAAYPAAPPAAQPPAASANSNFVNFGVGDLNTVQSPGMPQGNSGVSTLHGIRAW

As for `Cc1onc(-c2ccccc2Cl)c1C(=O)Nc1ccc2oc(-c3ccccc3)cc(=O)c2c1` [SI51], the activity at 3 µM under setting [1] came to 96.2%. Besides, the activity at 10 µM under setting [2] is 75.2%.

As for `Fc1ccc(-c2n[nH]cc2C=Nc2ccc(N3CCOCC3)cc2)cc1` [SI82], the activity at 3 µM under setting [3] was found to be 103%. The activity at 10 µM under setting [4] was found to be 87.6%.

Turning to `COc1ccc(-c2cc(N)nn2C(=O)c2ccc(C(C)(C)C)cc2)cc1` [SI112], the activity at 3 µM under setting [3] is 104%. Further, the activity at 10 µM under setting [4] stood at 71.9%.

Consider `CCN(CC)c1ccc(/N=C/c2onc(-c3ccccc3)c2C(=O)OC)cc1` [Compound 51], for which the activity at 3 µM under setting [3] worked out at 81.3%. The activity at 10 µM under setting [4] worked out at 93.5%.

With `CCN(CC)c1ccc(NC(=O)C2CCCC2)cc1` [Compound 57], the activity at 3 µM under setting [5] was determined as 112%. For the same molecule, under setting [6], the activity at 10 µM was 115%.

Turning to `CCN(CC)c1ccc(NCc2c(-c3ccccc3)noc2C)cc1` [Compound 20, N^1,N^1-Diethyl-N^4-[(5-methyl-3-phenylisoxazol-4-yl)methyl]benzene-1,4-diamine], the activity at 3 µM under setting [1] came out at 85.3%. Moreover, under setting [2], the activity at 10 µM amounted to 104%.

In the case of `CCN(CC)c1ccc(NCc2c(-c3c(Cl)cccc3Cl)noc2C)cc1` [SI18], the activity at 3 µM under setting [1] came out at 102%. In addition, the activity at 10 µM under setting [2] stood at 92.8%.

With `CN(C)c1ccc(C=Nc2cc(-c3ccccc3)nn2-c2ccccc2)cc1` [SI93], the activity at 3 µM under setting [3] was found to be 93.3%. Also, the activity at 10 µM under setting [4] was determined as 107%.

Regarding `Cc1noc(-c2ccccc2)c1C(=O)Nc1ccc2oc(-c3ccccc3)cc(=O)c2c1` [SI105], the activity at 3 µM under setting [7] is 70.3%. In addition, the activity at 10 µM under setting [8] turned out to be 44.1%.

Consider `CCN(c1ccc(NC(=S)c2c(-c3ccccc3)noc2C)cc1)C(C)C` [SI38], for which, under setting [3], the activity at 3 µM amounted to 72.7%. Besides, under setting [4], the activity at 10 µM turned out to be 112%.

Take `CCN(CC)c1ccc(NC(=O)c2c(C)noc2-c2cc(CCOc3ccccn3)on2)cc1` [SI74]: the activity at 3 µM under setting [5] came out at 97.4%. Under setting [6], the activity at 10 µM was found to be 104%.

On to `Cc1cc(NC(=O)c2c(-c3ccccc3)noc2C)ccc1C(C)C` [Compound 4e], for which, under setting [9], the activity at 3 µM was 95.2%.

Turning to `CC(=O)c1ccc(OCc2cc(-c3ccc(CC(C)C)cc3)on2)cc1` [SI107], the activity at 3 µM under setting [7] worked out at 113%. Also, the activity at 10 µM under setting [8] is 104%.

As to `Cc1onc(-c2ccccc2)c1COc1ccc(C(=O)N(C)CCCO)cc1` [Compound 36a], the activity at 3 µM under setting [7] was 106%. In addition, the activity at 10 µM under setting [8] is 105%.

For `CCN(CC)c1ccc(NC(=O)c2c(-c3ccccc3)nnn2CC2CCCO2)cc1` (centres unmarked) [SI62], the activity at 3 µM under setting [7] was found to be 88.2%. For the same molecule, the activity at 10 µM under setting [8] was 72.5%.

Consider `CCN(CC)c1ccc(NC(=O)c2csc3nnsc23)cc1` [Compound 47v], for which the activity at 3 µM under setting [1] turned out to be 95.9%. Also, the activity at 10 µM under setting [2] was determined as 132%.

For the molecule `CCC(O)c1ccc(OCc2c(-c3ccccc3)noc2C)cc1` (racemic) [Compound 34d, (rac)-1-[4-[(5-Methyl-3-phenylisoxazol-4-yl)methoxy]phenyl]propan-1-ol], the activity at 3 µM under setting [3] turned out to be 96.5%.

As to `COC(=O)c1ccc(N(C)C(=O)c2c(-c3ccccc3)noc2C)cc1` [SI110], the activity at 3 µM under setting [1] came to 100%. Besides, under setting [2], the activity at 10 µM is 117%.

As to `Cc1cc(-c2noc(C)c2C(=O)Nc2ccc(C(F)(F)F)cc2)no1` [SI135], the activity at 3 µM (COS-1, GATA4-NKX2-5 transcriptional synergy luciferase reporter assay, compound at 3 µM) was 98.8%. In addition, where the note is “COS-1, GATA4-NKX2-5 transcriptional synergy luciferase reporter assay, compound at 10 µM”, the activity at 10 µM was found to be 101%.

Consider `CCN(CC)c1ccc(NC(=O)c2c[nH]nc2C2CCCCC2)cc1` [SI86], for which the activity at 3 µM under setting [5] worked out at 94.8%. The activity at 10 µM under setting [6] amounted to 70.7%.

Take `Cc1onc(-c2ccccc2)c1COc1ccc([N+](=O)[O-])cc1` [Compound 21b]: the activity at 3 µM under setting [9] turned out to be 94%.

For the molecule `CCN(CC)c1ccc(NS(=O)(=O)c2c(C)noc2C)cc1` [SI19], the activity at 3 µM under setting [9] stood at 91.6%. Moreover, the activity at 10 µM (COS-1, 10 µM, luciferase reporter activity, % of control) was 79.1%.

With `CCN(CC)c1ccc(NC(=O)c2c(-c3ccccc3)noc2C)cc1Cl` [Compound 4c], under setting [5], the activity at 3 µM is 92.6%.

As for `CCc1cc(-c2onc(C)c2C(=O)Nc2ccc(N(CC)CC)cc2)no1` [SI75], the activity at 3 µM under setting [5] came out at 97.5%. Further, the activity at 10 µM under setting [6] came out at 88.8%.
